{"source": "paper PMC6029141", "about": "“Population Pharmacokinetics of Vancomycin in Chinese ICU Neonates: Initial Dosage Recommendations” (Frontiers in Pharmacology, 2018)", "key": {"[1]": {"experiment": "Vancomycin trough and peak concentrations, fluorescence polarization immunoassay", "format": "in vivo, Chinese neonates", "details": "after at least four doses, 10–15 mg/kg q8h or q12h, FPIA", "experimental": "Concentrations of vancomycin were determined using the fluorescence polarization immunoassay with an ARCHITECT i2000SR (Abbott Laboratories, Chicago, IL, USA). The limit of detection was 1 mg/L, and the calibration range of this assay was 3 to 50 mg/L. The intra-day and inter-day coefficients of variation (CVs) were all < 20%."}, "[2]": {"details": "cited from earlier work", "from_the_text": "The maximum a posteriori Bayesian estimation method has already been used to support vancomycin dosing decisions in adults (Deng et al., [2013]; Jacqz-Aigrain et al., [2015]) and children (Le et al., [2014]). To obtain accurate estimation with this method for individualized therapy, it is crucial that reliable population pharmacokinetic characteristics are known for the target patients. […] (H ..."}, "[3]": {"experiment": "Population pharmacokinetic modeling of vancomycin (NONMEM, FOCE-I, one-compartment, first-order elimination)", "details": "for θ4, volume of distribution V / θ5, exponent of body weight on V / θ1, clearance CL: final model", "procedure": "Chinese neonates who received vancomycin in the neonatal ICU at Shanghai Children's Hospital (Shanghai, China) between January 2013 and December 2016 were enrolled. Patients included in this study were neonates with PMA ≤ 48 weeks for preterm neonates and with postnatal age (PNA) ≤ 28 days for term neonates. All patients were treated with vancomycin for at least 3 days, and at least one vancomycin concentration was assayed. Patients with extracorporeal membrane oxygenation or continuous renal replacement therapy were excluded from the current study. The following information was retrospectively collected from electronic medical records: gestational age (GA), PMA, PNA, body weight (WT), dosing history and concentration of vancomycin, serum creatinine (Scr) levels, clinical laboratory tests of other renal and hepatic functions, and co-administered medications.\nThe dose of vancomycin (Vancocin, Lilly, S.A, Suzhou, China) was 10–15 mg/kg, which was administrated every 8 h (q8h) or every 12 h (q12h) with a 2-h infusion, in accordance with local protocols. Blood samples were collected 1 h after completion of drug infusion (peak concentration) or half an hour before the start of vancomycin administration (trough concentration) for each patient. Trough and peak concentrations were obtained after at least four repeated doses. Potential outlier data points (observations) were identified by employing conditional weighted residual (CWRES) results outside a range of ± 6 (Byon et al., [2013]).\nPopulation pharmacokinetic modeling was performed using the NONMEM program (Version 7.4; Icon Inc, PA, USA) compiled with gFortran (Version 4.9.2; http://www.gfortran.org). R (Version 3.3.1; http://www.r-project.org) and the Xpose package (Version 4.5.3; http://xpose.sourceforge.net) were used for visual diagnosis. The first-order conditional estimation method with η–ε interaction (FOCE-I) was used throughout the model-building procedure (Wählby et al., [2001]).\nThe vancomycin concentration data were fitted by the one or two compartment with a first-order elimination model. NONMEM subroutines were specified as ADVAN1-TRANS2 or ADVAN3-TRANS4, respectively.\nAn exponential model (Equation 1) was used to account for inter-individual variability (IIV):\nResidual unexplained variability was tested by an additive model (Equation 2), exponential model (Equation 3), or a combined additive and exponential model (Equation 4):\nFour different models based on allometric scaling were tested using Equation (5): (5) Pi= TV(P)×(COV/COVmedian)^θ×MF\nThe robustness of the model was assessed using a nonparametric bootstrap (Ette, [1997]), with repetition of 2000 NONMEM runs of the final model. The bootstrap median parameter values and the percentile bootstrap 95% confidence intervals were compared with the respective values estimated from the final model."}, "[4]": {"details": "Model III, WT-dependent exponent model"}, "[5]": {"details": "Model IV, age-dependent exponent model"}}, "note": "Like-named read-outs stand apart in the source and are kept apart here.", "data": [{"smiles": "CN[C@H](CC(C)C)C(=O)N[C@H]1C(=O)N[C@@H](CC(N)=O)C(=O)N[C@H]2C(=O)N[C@H]3C(=O)N[C@H](C(=O)N[C@H](C(=O)O)c4cc(O)cc(O)c4-c4cc3ccc4O)[C@H](O)c3ccc(c(Cl)c3)Oc3cc2cc(c3O[C@@H]2O[C@H](CO)[C@@H](O)[C@H](O)[C@H]2O[C@H]2C[C@](C)(N)[C@H](O)[C@H](C)O2)Oc2ccc(cc2Cl)[C@H]1O", "note": "[vancomycin]", "values": [{"measurement": "Peak concentration, median (range)", "setting": "[1]; 1 h after completion of 2-h infusion, 90 peak samples", "result": "20.3 (4.09–51.9) mg/L"}, {"measurement": "Peak concentration", "setting": "[1]; column 'Modeling group' (value ± spread), 1 h after completion of 2-h infusion, 90 peak samples", "result": "22.3 ± 11.0", "unit": "mg/L"}, {"measurement": "Trough concentration", "setting": "[1]; column 'Modeling group' (value ± spread), half an hour before administration, 2-h infusion, 75 trough samples, 80 neonates", "result": "11.2 ± 7.92", "unit": "mg/L"}, {"measurement": "Trough concentration, median (range)", "setting": "[1]; half an hour before administration, 2-h infusion, 75 trough samples", "result": "9.15 (3.14–42.9) mg/L"}, {"measurement": "clearance (CL)", "setting": "[2]; adult Caucasian patients, first of two values, ref Guay et al., [1993], Sánchez et al., [2010]", "result": "4.03 ± 1.7", "unit": "L/h"}, {"measurement": "clearance (CL)", "setting": "[2]; adult Caucasian patients, second of two values, ref Guay et al., [1993], Sánchez et al., [2010]", "result": "5.83 ± 2.39", "unit": "L/h"}, {"measurement": "clearance (CL)", "setting": "[2]; adult Chinese patients, second of two values, ref He et al., [2014], Lin et al., [2015]", "result": "6.06 ± 2.46", "unit": "L/h"}, {"measurement": "average clearance across all three populations", "setting": "[2]; neonatal patient with weight of 3 kg and PMA of 40 weeks, Caucasian, Japanese, Malaysian neonates, ref Seay et al., [1994] to Lo et al., [2010] (b5)", "result": "0.08 to 0.50", "unit": "L/h"}, {"measurement": "k, exponent for body weight (RSE%)", "setting": "[3]; Model I, simple exponent model", "result": "1.57 (10.9%)"}, {"measurement": "CLp typical value of apparent clearance (RSE%)", "setting": "[3]; Model I, simple exponent model, MF = 1", "result": "0.319 (5.1%) L/h"}, {"measurement": "Hill (RSE%)", "setting": "[3]; Model II, maturation model", "result": "4.45 (105%)"}, {"measurement": "TM50, age at which clearance maturation reaches 50% of that of adults (RSE%)", "setting": "[3]; Model II, maturation model", "result": "46.9 (102%)"}, {"measurement": "CLp typical value of apparent clearance (RSE%)", "setting": "[3]; Model II, maturation model, k fixed 0.75", "result": "0.911 (235%) L/h"}, {"measurement": "k50, body weight at which there is a 50 % decrease in the kmax (RSE%)", "setting": "[3]; Model III", "result": "12.7 (53.1%)"}, {"measurement": "kmax, maximum decrease of the exponent (RSE%)", "setting": "[3]; Model III", "result": "1.08 (25%)"}, {"measurement": "θ0, exponent at a theoretical WT of 0 kg (RSE%)", "setting": "[3]; Model III", "result": "1.57 (10.9%)"}, {"measurement": "CLp typical value of apparent clearance (RSE%)", "setting": "[3]; [4]", "result": "0.319 (5.1%) L/h"}, {"measurement": "Hill (RSE%)", "setting": "[3]; [4]", "result": "23.6 (17.2%)"}, {"measurement": "k50, age at which there is a 50 % decrease in the kmax (RSE%)", "setting": "[3]; Model IV", "result": "62.3 (22%)"}, {"measurement": "kmax, maximum decrease of the exponent (RSE%)", "setting": "[3]; Model IV", "result": "1.08 (25%)"}, {"measurement": "θ0, exponent at age at birth (RSE%)", "setting": "[3]; Model IV", "result": "1.57 (10.9%)"}, {"measurement": "CLp typical value of apparent clearance (RSE%)", "setting": "[3]; [5]", "result": "0.319 (5.1%) L/h"}, {"measurement": "Hill (RSE%)", "setting": "[3]; [5]", "result": "60.7 (23.4%)"}, {"measurement": "θ4, volume of distribution V", "setting": "[3]; NONMEM estimate, WT 2.9 kg", "result": 2.63, "unit": "L"}, {"measurement": "θ5, exponent of body weight on V", "setting": "[3]; NONMEM estimate, [WT(kg)/2.9]^θ5", "result": 1.05}, {"measurement": "θ1, clearance CL", "setting": "[3]; NONMEM estimate, typical neonate WT 2.9 kg, Scr 23.3 μmol/L", "result": 0.309, "unit": "L/h"}, {"measurement": "θ1, clearance CL", "setting": "[3]; bootstrap median, 2000 runs", "result": 0.308, "unit": "L/h"}, {"measurement": "θ4, volume of distribution V", "setting": "[3]; bootstrap median, 2000 runs", "result": 2.62, "unit": "L"}, {"measurement": "θ5, exponent of body weight on V", "setting": "[3]; bootstrap median, 2000 runs", "result": 1.06}]}]}
